{"source": "patent US9981972B2", "about": "“N-hydroxy bicyclic hydantoin carbamates as tools for identification of serine hydrolase targets” (ABIDE THERAPEUTICS, INC., priority 2014, dated 2018)", "key": {"[1]": {"assay": "Solubility in media (DMEM+10% FBS)", "assay_type": "physicochemical", "settings": "plasma or biological fluid, kinetic from dmso stock, complete media (DMEM+10% FBS), 22° C., read-out: solubility in DMEM containing 10% serum", "protocol": "Solubility in Media: The solubility of compounds were tested in triplicate in complete media (DMEM+10% FBS). Per well, 198 μL PBS is added to a Millipore Solvinert Hydrophilic PTFE 96 well filter plate: pore size: 0.45 μm (MSRLN0450). Test compounds were introduced from 10 mM DMSO stock solutions (2 μL). The final concentration of DMSO was 1 percent. Samples were allowed to incubate at 22° C. for 18 hours. In the morning the plate was centrifuged where the soluble portion passed through the filter and was collected in a capture plate. The samples were analyzed by HPLC (Agilent 1100 with diode-array detector). Peak area was compared to a standard of known concentration."}, "Stability in PBS": {"assay": "Stability in PBS", "assay_type": "physicochemical", "settings": "10 μM compound, ambient temperature", "protocol": "Samples were held in the HPLC autosampler at ambient temperature. At approximately 0, 1, 2, 4, 8, 24, and 48 hours the samples were injected on the HPLC. Peak area and retention time were compared between injections. Data was log transformed and represented as half-life. DMSO was added as a co-solvent as needed for solubility."}, "[2]": {"test_system": "FP-sensitive SHs in the mouse brain membrane proteome", "assay": "Gel-based competitive ABPP in vitro, mouse brain membrane proteome, anti-targets", "assay_type": "biochemical", "how_it_was_run": "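Mouse brain membrane proteome (1 mg/mL in DPBS) was treated with compound (0.1-100 μM) for 30 min at 37 °C, then labeled with FP-Rh (2 μM final, 30 min, 25 °C). Bands were resolved by SDS-PAGE and scanned in-gel, with inhibition taken from band optical density versus DMSO. Targets counted as active or anti-targets at ≥50% inhibition.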"}, "[3]": {"test_system": "other SHs (anti-targets) in mouse tissues", "assay": "Inhibition by gel-based competitive ABPP in vivo, other SHs", "settings": "4 h", "protocol": "In this assay, test compounds were administered to mice. Mice were sacrificed, and their tissues harvested, homogenized, and the soluble fractions isolated, reacted with FP-Rh, and separated by SDS-PAGE as described above.\nProtocol Summary: Purpose-bred 3-4 month old male C57BL6 laboratory mice were i.p. administered test compound (0.5-50 mg/kg in 18:1:1 saline:PEG-40-castor oil:EtOH vehicle solution, 10 μL/g mouse weight) or vehicle only. After 4 hours, mice were humanely sacrificed (anesthetized with isoflurane followed by cervical dislocation), and tissues (liver, kidney, brain) removed and snap frozen in liquid nitrogen before processing. Tissues were homogenized, and soluble proteome isolated by ultracentrifugation (100 k×g, 45 minutes) and protein concentration adjusted to 1 mg/mL in DPBS. An aliquot (50 μL) was reacted with FP-Rh (2 μM final concentration) for 30 minutes at 25° C. Reactions were quenched with 16 μL 4×SDS-PAGE loading buffer (reducing), separated by SDS-PAGE, and visualized by in-gel fluorescent scanning. The percentage activity remaining was determined by measuring the integrated optical density of test compound bands relative to vehicle bands. Note: Due to the overlapping nature of LYPLA1 and LYPLA2 bands, the proteins were quantified together.\nThe in vivo inhibitory activity of Compound 1 was assessed. For this experiment, mice were administered test compound (0.5-50 mg/kg, i.p.) or vehicle only. After four hours mice were sacrificed and their tissues removed, homogenized, and the soluble fractions isolated and labeled with FP-Rh followed by SDS-PAGE and fluorescent detection of FP-labeled SHs (see FIG. 3B).\nCompound 26, Compound 34, and Compound 1 were administered across a dose range of 1-40 mg/kg to C57BL6 mice by intraperitoneal injection, and, after 4 hours, animals were sacrificed and tissues harvested for analysis by gel-based ABPP using the FP-Rh probe and the Compound 39 probe."}}, "note": "Entries after “also recorded” stand apart in the source; their conditions may differ."}
{"smiles": "O=C(ON1C(=O)C2CN(C(=O)N3CCOCC3)CCN2C1=O)N1CCC(CCc2ccc(Cl)cc2)CC1", "note": "(stereo not drawn) [Compound 1, 7-(morpholine-4-carbonyl)-1,3-dioxohexahydroimidazo[1,5-a]pyrazin-2(3H)-yl 4-(4-chloro-phenethyl)piperidine-1-carboxylate]", "values": [{"measurement": "solubility at 18 h", "setting": "[1]", "value": 46, "unit": "µM"}, {"measurement": "half-life at 10 µM", "setting": "Stability in PBS", "value": 19, "unit": "h"}, {"measurement": "Anti-target(s) 1 μM", "setting": "[2]; SHs with at least 50% inhibition at 1 μM compound", "value": "ABHD6"}, {"measurement": "Anti-target(s) 10 μM", "setting": "[2]; SHs with at least 50% inhibition at 10 μM compound", "value": "FAAH,; also recorded: ABHD6"}, {"measurement": "Anti-target(s) 100 μM", "setting": "[2]; SHs with at least 50% inhibition at 100 μM compound", "value": "FAAH,; also recorded: ABHD12,; also recorded: MAGL,; also recorded: ABHD6"}, {"measurement": "anti-target inhibition in vivo", "setting": "[3]; 0.5-50 mg/kg i.p., any tissue, ABHD6 not visible", "value": "no significant anti-target inhibition"}, {"measurement": "cross-reactivity with other SHs in vivo", "setting": "[3]; 1-40 mg/kg i.p.", "value": "limited cross-reactivity with other SHs"}]}
{"smiles": "COc1ccc(N2CCN(C(=O)ON3C(=O)C4CN(CC5CCN(Cc6ccccc6)CC5)CCN4C3=O)CC2)cc1", "note": "(stereo not drawn) [Compound 26, 7-((1-benzylpiperidin-4-yl)methyl)-1,3-dioxohexahydroimidazo[1,5-a]pyrazin-2(3H)-yl 4-(4-methoxyphenyl)piperazine-1-carboxylate]", "values": [{"measurement": "inhibition of other SHs in vivo", "setting": "[3]; 1-40 mg/kg i.p., brain and testis, FP-Rh or Compound 39 probe", "value": "did not inhibit other SHs"}]}
{"smiles": "O=C(ON1C(=O)C2CN(Cc3ccc(Oc4ccccc4)cc3)CCN2C1=O)N1CCC(c2ccccc2)CC1", "note": "(stereo not drawn) [Compound 38, 1,3-dioxo-7-(4-phenoxybenzyl)hexahydroimidazo[1,5-a]pyrazin-2(3H)-yl 4-phenylpiperidine-1-carboxylate]", "values": [{"measurement": "concentration-dependent profiling, ABHD3 and ABHD4", "setting": "[2]; mouse brain membrane SHs, FIG. 7B", "value": "promising lead inhibitor for ABHD3 and ABHD4"}]}
